Starred links: 1 amine or outer side, 2 acyl side, 3 side chain; linkers in the order of their positions; H or OH if unused. Positions of bridges follow the written chain, without caps; N, C: chain ends. Non-standard residues stand in square brackets, D forms with d. Residues, ends and D or L forms follow the SMILES beside them. *: point of attachment. hPhe(3,5-F2-4-CF3) = N[C@@H](CCc1cc(F)c(C(F)(F)F)c(F)c1)C(=O)O; hPhe(3-Cl-4-CF3) = N[C@@H](CCc1ccc(C(F)(F)F)c(Cl)c1)C(=O)O; hPhe(3-F,4-CF3) = N[C@@H](CCc1ccc(C(F)(F)F)c(F)c1)C(=O)O; NMePhe(4-CF3) = CN[C@@H](Cc1ccc(C(F)(F)F)cc1)C(=O)O; Pro(cis-4-Ph) = O=C(O)[C@@H]1C[C@H](c2ccccc2)CN1; NMePhe(4-I) = CN[C@@H](Cc1ccc(I)cc1)C(=O)O; hPhe(4-Cl) = N[C@@H](CCc1ccc(Cl)cc1)C(=O)O; NMedβ3hAla = C[C@H](CC(=O)[*:2])N(C)[*:1]; NMeAla(cPent) = CN[C@@H](CC1CCCC1)C(=O)O; NMeGly(cPent) = CN[C@H](C(=O)O)C1CCCC1; Pro(4,4-F2) = O=C(O)[C@@H]1CC(F)(F)CN1; NMeGly(cBu) = CN[C@H](C(=O)O)C1CCC1; NMeCha = CN[C@@H](CC1CCCCC1)C(=O)O; Gly(N-(CH2)2OEt) = CCOCCNCC(=O)O; NMeChg = CN[C@H](C(=O)O)C1CCCCC1; NMeI = CC[C@H](C)[C@H](NC)C(=O)O; NMeT = CN[C@H](C(=O)O)[C@@H](C)O; NMeD = CN[C@@H](CC(=O)O)C(=O)O; NMeHpra = C#CCC[C@H](NC)C(=O)O; NMeL = CN[C@@H](CC(C)C)C(=O)O; NMeV = CN[C@H](C(=O)O)C(C)C; d(β3hA) = C[C@@H](N)CC(=O)O; Azetidin(1-yl) = C1CN(*)C1; NMeS = CN[C@@H](CO)C(=O)O; NMeA = CN[C@@H](C)C(=O)O; Piperidide = C1CCN(*)CC1; Pyrrolidide = C1CCN(*)C1; Ac5c = NC1(C(=O)O)CCCC1; Aze = O=C(O)[C@@H]1CCN1; Cyclobutyl = C1CC(*)C1; Sar = CNCC(=O)O

One may read the IC50 as the midpoint of a concentration-inhibition curve.

This experiment concerns Human pancreatic cancer cell line AsPC-1. The experiment in a line: Measurement of AsPC-1 cell growth inhibition (AsPC-1 CGI). Format: cell-based. To be noted: 96 h. In outline: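 AsPC-1 cells in 15% FBS RPMI-1640 were exposed to test compound for 96 hours at 37° C, with CellTiter-Glo as endpoint.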

On to `CCOCCN1CC(=O)NC2(CCCC2)C(=O)N(C)[C@@H](C2CCCCC2)C(=O)N(C)[C@H](C(=O)N2CCCCC2)CC(=O)N(C)[C@@H](CC(C)C)C(=O)N[C@@H]([C@@H](C)CC)C(=O)N(C)CC(=O)N(C)CC(=O)N(C)[C@@H](CC2CCCCC2)C(=O)N(C)CC(=O)N[C@@H](CCc2ccc(C(F)(F)F)c(Cl)c2)C1=O` [Compound 872] ([NMeL]I[Sar][Sar][NMeCha][Sar][hPhe(3-Cl-4-CF3)][Gly(N-(CH2)2OEt)][Ac5c][NMeChg][NMeD]-Piperidide; lactam N-11), for which the half-inhibitory concentration (IC50) is 0.1 to 0.5 µM.
The compound `CC[C@H](C)[C@@H]1NC(=O)[C@H](C2CCCCC2)N(C)C(=O)C[C@@H](C)NC(=O)[C@H](C(C)C)N(C)C(=O)C2(CCCC2)NC(=O)[C@@H]2CCCN2C(=O)[C@H](CCc2ccc(C(F)(F)F)c(Cl)c2)NC(=O)CN(C)C(=O)[C@H](CC2CCCCC2)N(C)C(=O)[C@@H]2CCN2C(=O)[C@H](C)N(C)C1=O` [Compound 873] (cyclo([Ac5c][NMeV][d(β3hA)][NMeChg]I[NMeA][Aze][NMeCha][Sar][hPhe(3-Cl-4-CF3)]P)) showed an IC50 of 0.1 to 0.5 µM.
As to `CC[C@H](C)[C@@H]1NC(=O)[C@H](CC(C)C)N(C)C(=O)C[C@@H](C(=O)N2CCCCC2)N(C)C(=O)[C@H]([C@@H](C)CC)N(C)C(=O)C2(CCCC2)NC(=O)[C@@H]2CCCN2C(=O)[C@H](CCc2ccc(C(F)(F)F)c(Cl)c2)NC(=O)CN(C)C(=O)[C@H](COC2CCC2)N(C)C(=O)[C@@H]2CCN2C(=O)[C@H](C)N(C)C1=O` [Compound 885] ([NMeL]I[NMeA][Aze][NMeS](Cyclobutyl)[Sar][hPhe(3-Cl-4-CF3)]P[Ac5c][NMeI][NMeD]-Piperidide; lactam N-11), the IC50 fell in the range of 0.02 to 0.05 µM.
The value for `CC[C@H](C)[C@@H]1NC(=O)[C@H](CC(C)C)N(C)C(=O)C[C@@H](C)N(C)C(=O)[C@H](C2CCCC2)N(C)C(=O)C2(CCCC2)NC(=O)[C@@H]2CC(F)(F)CN2C(=O)[C@H](CCc2cc(F)c(C(F)(F)F)c(F)c2)NC(=O)CN(C)C(=O)[C@H](Cc2ccc(C(F)(F)F)cc2)N(C)C(=O)[C@@H]2CCN2C(=O)[C@H](C)N(C)C1=O` [Compound 900] (cyclo([Ac5c][NMeGly(cPent)][NMedβ3hAla][NMeL]I[NMeA][Aze][NMePhe(4-CF3)][Sar][hPhe(3,5-F2-4-CF3)][Pro(4,4-F2)])) was 0.02 to 0.05 µM; that for `CC[C@H](C)[C@@H]1NC(=O)[C@H](CC(C)C)N(C)C(=O)C[C@@H](C)N(C)C(=O)[C@H]([C@@H](C)CC)N(C)C(=O)C2(CCCC2)NC(=O)[C@@H]2CCCN2C(=O)[C@H](CCc2ccc(C(F)(F)F)c(F)c2)NC(=O)CN(C)C(=O)[C@H](C2CCCC2)N(C)C(=O)[C@@H]2CCN2C(=O)[C@H](C)N(C)C1=O` [Compound 909] (cyclo([Ac5c][NMeI][NMedβ3hAla][NMeL]I[NMeA][Aze][NMeGly(cPent)][Sar][hPhe(3-F,4-CF3)]P)) was 0.05 to 0.1 µM; that for `CC[C@H](C)[C@@H]1NC(=O)[C@H](CC(C)C)N(C)C(=O)C[C@@H](C(=O)N2CCCCC2)N(C)C(=O)[C@H](C(C)C)N(C)C(=O)C2(CCCC2)NC(=O)[C@@H]2CCCN2C(=O)[C@H](CCc2ccc(Cl)cc2)NC(=O)CN(C)C(=O)[C@H](CC2CCCCC2)N(C)C(=O)[C@@H]2CCN2C(=O)CN(C)C1=O` [Compound 916] ([NMeL]I[Sar][Aze][NMeCha][Sar][hPhe(4-Cl)]P[Ac5c][NMeV][NMeD]-Piperidide; lactam N-11) was 0.1 to 0.5 µM.
Regarding `CC[C@H](C)[C@@H]1NC(=O)[C@H](CC(C)C)N(C)C(=O)C[C@@H](C(=O)N2CCCC2)N(C)C(=O)[C@H](C2CCCC2)N(C)C(=O)C2(CCCC2)NC(=O)[C@@H]2CCCN2C(=O)[C@H](CCc2ccc(C(F)(F)F)c(F)c2)NC(=O)CN(C)C(=O)[C@H](C2CCCC2)N(C)C(=O)[C@@H]2CCN2C(=O)[C@H](C)N(C)C1=O` [Compound 918] ([NMeL]I[NMeA][Aze][NMeGly(cPent)][Sar][hPhe(3-F,4-CF3)]P[Ac5c][NMeGly(cPent)][NMeD]-Pyrrolidide; lactam N-11), the IC50 was in the range of 0.02 to 0.05 µM.
Compound `CC[C@H](C)[C@@H]1NC(=O)[C@H](CC2CCCC2)N(C)C(=O)C[C@@H](C(=O)N2CCC2)N(C)C(=O)[C@H](C2CCCC2)N(C)C(=O)C2(CCCC2)NC(=O)[C@@H]2CCCN2C(=O)[C@H](CCc2ccc(C(F)(F)F)c(Cl)c2)NC(=O)CN(C)C(=O)[C@H](CC2CCCCC2)N(C)C(=O)[C@@H]2CCN2C(=O)[C@H](C)NC1=O` [Compound 921] ([NMeAla(cPent)]IA[Aze][NMeCha][Sar][hPhe(3-Cl-4-CF3)]P[Ac5c][NMeGly(cPent)][NMeD]-{Azetidin(1-yl)}; lactam N-11) came in with a 50% inhibitory concentration (IC50) of 0.02 to 0.05 µM.
For `CC[C@H](C)[C@@H]1NC(=O)[C@H](CC(C)C)N(C)C(=O)C[C@@H](C(=O)N2CCCCC2)N(C)C(=O)[C@H](C(C)C)N(C)C(=O)C2(CCCC2)NC(=O)[C@@H]2CCCN2C(=O)[C@H](CCc2ccc(C(F)(F)F)c(Cl)c2)NC(=O)CN(C)C(=O)[C@H]([C@@H](C)OC)N(C)C(=O)[C@@H]2CCN2C(=O)[C@H](C)N(C)C1=O` [Compound 929] ([NMeL]I[NMeA][Aze][NMeT](Me)[Sar][hPhe(3-Cl-4-CF3)]P[Ac5c][NMeV][NMeD]-Piperidide; lactam N-11), the IC50 lay in the range of 0.1 to 0.5 µM.
In the case of `CC[C@H](C)[C@@H]1NC(=O)[C@H](C2CCC2)N(C)C(=O)C[C@@H](C(=O)N2CCCCC2)N(C)C(=O)[C@H]([C@@H](C)CC)N(C)C(=O)C2(CCCC2)NC(=O)[C@@H]2CCCN2C(=O)[C@H](CCc2ccc(C(F)(F)F)c(Cl)c2)NC(=O)CN(C)C(=O)[C@H](CC2CCCCC2)N(C)C(=O)[C@@H]2CCN2C(=O)[C@H](C)N(C)C1=O` [Compound 959] ([NMeGly(cBu)]I[NMeA][Aze][NMeCha][Sar][hPhe(3-Cl-4-CF3)]P[Ac5c][NMeI][NMeD]-Piperidide; lactam N-11), the IC50 was 0.02 to 0.05 µM.
For `CC[C@H](C)[C@@H]1NC(=O)[C@H](CC(C)C)N(C)C(=O)C[C@@H](C(=O)N2CCCCC2)N(C)C(=O)[C@H](C2CCCCC2)N(C)C(=O)C2(CCCC2)NC(=O)[C@@H]2C[C@H](c3ccccc3)CN2C(=O)[C@H](CCc2ccc(C(F)(F)F)c(Cl)c2)NC(=O)CN(C)C(=O)[C@H](CC2CCCCC2)N(C)C(=O)[C@@H]2CCN2C(=O)CN(C)C1=O` [Compound 960] ([NMeL]I[Sar][Aze][NMeCha][Sar][hPhe(3-Cl-4-CF3)][Pro(cis-4-Ph)][Ac5c][NMeChg][NMeD]-Piperidide; lactam N-11) the value was 0.1 to 0.5 µM.
The value for `C#CCC[C@H]1C(=O)N[C@@H]([C@@H](C)CC)C(=O)N(C)[C@@H](C)C(=O)N2CC[C@H]2C(=O)N(C)[C@@H](Cc2ccc(I)cc2)C(=O)N(C)CC(=O)N[C@@H](CCc2ccc(C(F)(F)F)c(Cl)c2)C(=O)N2CCC[C@H]2C(=O)NC2(CCCC2)C(=O)N(C)[C@@H](C2CCCCC2)C(=O)N(C)[C@H](C)CC(=O)N1C` [Compound 961] (cyclo([Ac5c][NMeChg][NMedβ3hAla][NMeHpra]I[NMeA][Aze][NMePhe(4-I)][Sar][hPhe(3-Cl-4-CF3)]P)) was 0.1 to 0.5 µM; that for `C#CCC[C@H]1C(=O)N[C@@H]([C@@H](C)CC)C(=O)N(C)[C@@H](C)C(=O)N2CC[C@H]2C(=O)N(C)[C@@H](Cc2ccc(I)cc2)C(=O)N(C)CC(=O)N[C@@H](CCc2ccc(C(F)(F)F)c(Cl)c2)C(=O)N2CCC[C@H]2C(=O)NC2(CCCC2)C(=O)N(C)[C@@H](C2CCCCC2)C(=O)N[C@H](C)CC(=O)N1C` [Compound 971] (cyclo([Ac5c][NMeChg][d(β3hA)][NMeHpra]I[NMeA][Aze][NMePhe(4-I)][Sar][hPhe(3-Cl-4-CF3)]P)) was 0.1 to 0.5 µM.

The record behind these values is patent publication US12371454B2, “Cyclic peptide compound having Kras inhibitory action” (priority 2019, dated 2025).
